# Results reported in patent publication US9445596B2, “Small molecule compounds for the control of nematodes” (California Institute of Technology, priority 2011, dated 2016).
# Entries after “also recorded” stand apart in the source; their conditions may differ.
# What was measured:
# [1] = test system: males; experiment: Bioassay of HPLC-purified peak; assay type: in vivo; settings: purified peak with retention time of 9.7 minutes
# Procedure: A Thermo Finnigan LCQ Deca XP Max was used with electrospray ionization in positive ion mode in the 50-1000 AMU range. The Thermo Separation spectra HPLC system consisted of a P4000 quaternary pump, an AS 3000 auto sampler, and a UV 6000 diode array detector. The solvents were water with (a) 0.1% formic acid and (b) 90% acetonitrile-10% water with 10 mM ammonium formate. The column temperature was maintained at 60° C. and a solvent flow of 1.0 ml/min. The reversed phase column (PLRP-S Polymeric reversed phase column, 250×4.6 mmid, Varian Inc.) was eluted with a solvent composition starting with 90:10 (a,b) for 2 minutes, followed by a gradient to 5:95 in 20 minutes and an additional 5 minutes at 5:95. Ultraviolet absorption was monitored at 190 and 400 nm. Solvent flow between the ultraviolet detector and mass spectroscopy electrospray interface split 9:1 with a low-volume micro needle P450 splitter valve (Upchurch Scientific, Oak Harbor, Wash.), making it possible to obtain spectra of eluted compounds and simultaneously collect 90% of the injected material for bioassay. […] This was confirmed to be ascr#1 using NMR analysis.
# [2] = test system: P. pacificus; experiment: Dauer formation assay; assay type: in vivo, Pristionchus pacificus; settings: even at very high concentrations (20 μM)
# Procedure: Dauer formation assays were performed as described in Ogawa et al., Curr. Biol. 19:67-71 (2009), which is hereby incorporated by reference in its entirety, using heat- or kanamycin-killed E. coli OP50. Synthetic compounds were dissolved in ethanol (0.5 mM, stock solution) and combined with water to make a […] and subsequently added to 3 mL NGM-agar without peptone ([…], 0.3, 0.1 μM final concentrations).
# [3] = test system: several of the tested nematode species; experiment: Retention assay, several nematode species; assay type: in vivo; settings: 1 nM, 1 μM and 1 mM tested
# Procedure: (§1) OP50 E. coli was grown on a standard 5 cm agar plate (made with standard Nematode Growth Medium). The bacterial lawn was 16 mm in diameter and was grown overnight at 20° C. before being used in trials. Two 4 mm spots (0.6 μL) were placed on opposite sides of the bacterial lawn (using a transparent template to guide spot placement), and several minutes elapsed for the liquid to settle in before placing nematodes down on the assay. Recording began immediately upon worm placement. 0.6 μL of the control was placed on one side of the lawn, and 0.6 μL of the experimental cue was placed on the other side of the lawn, changing the location of the cue throughout trials between left/right and top/bottom to avoid bias.
# Nematodes were isolated by gender at the L4 stage the day before being used in trials as developed adults. Worms were evenly divided and placed at two points equidistant from the foci of the scoring region. Trials were recorded for 20 minutes, and frames were collected for analysis at 1 frame per second. Results were averaged from at least three different trials. For every nematode species in this study, a different total number of worms (using water in both scoring regions) was tested to determine the minimum number of worms necessary for consistent unbiased results over a 20 minute trial. The total number of worms used in the multiple species assays depended on that species' optimal parameters. 10 worms were used for P. redivivus males and females, 20 worms were used for C. elegans males and O. dolichuridae males, and 14 worms were used for S. glaseri males. The Automated Software was used to compare worm occupancy in each scoring region over time, and the Chemotaxis Index (Bargmann et al., Cell 74:515-27 (1993), which is hereby incorporated by reference in its entirety) was adapted to score preference or avoidance to each ascaroside.
# A video camera attached to the microscope produced a digital video stream, which was then analyzed. The ratio of the time the average worm spent in each region of interest was calculated for every trial. For ease of implementation, all worms in a single experiment were assumed to be roughly the same size. Thus worm pixels were counted instead of whole worms, allowing fractions of a worm in the region of interest to be taken into account. It also eliminated the need for a shape-based worm identification algorithm, and allowed each frame to be analyzed independently. A band-pass filter was applied to each frame to eliminate the effect of uneven lighting and also accentuate the worms against the background. The worm was then identified after thresholding the filtered image. Throughout each experiment, the locations and sizes of the regions of interest were known. Through the filtering described above, it is known which pixels are occupied by worms and which ones are not. Thus, the ratio of worm-pixels to all pixels inside the region of interest can be calculated to produce the worm-occupancy ratio. This calculation was done for every frame, giving a plot output of worm-occupancy ratio vs. time for each region.
# [4] = test system: P. pacificus strain RSB020; experiment: Mouth-form dimorphism assay; assay type: in vivo, Pristionchus pacificus; settings: high concentrations
# Procedure: Mouth-form dimorphism assays were performed using P. pacificus strain RSB020. The synthetic compounds dissolved in ethanol (0.5 mM) were diluted with water to make 100 μl solution and subsequently added to 3 mL NGM-agar (1 μM final concentration). The assay plates were seeded with 50 μl OP50 culture in LB medium and incubated overnight at 20° C. to allow bacterial growth. Each replicate included the progeny of two mothers, which were picked as adult hermaphrodites of a consistent age (carrying 4-6 eggs) and which were all from the same P. pacificus culture plate. Following the placement of mothers on assay plates, plates were kept at 20° C. for six days, such that the entire broods were adults at the time of screening. A random sample of 50 hermaphrodite progeny was screened per plate. All animals were screened by differential interference contrast (DIC) microscopy on a Zeiss Axiskop. The following discrete characters were used to discriminate eurystomatous from stenostomatous individuals, respectively: (1) claw-shaped vs. flint-shaped (i.e. dorsoventrally symmetrical) dorsal tooth; (2) presence vs. absence of a subventral tooth; (3) strongly vs. weakly sclerotized stomatal walls. No intermediate mouth-forms were observed. Experiments were conducted in triplicate for each treatment. In assays of responses to compounds of several concentrations (1, 0.3, 0.1, 0.03, 0.01 μM final concentrations), experiments were performed as described above, with the following modifications. To allow greater resolution of responses to lower concentrations, 60 randomly screened individuals in each of five replicates per concentration per compound were assayed. All concentration-curve experiments were performed in parallel using mothers picked randomly from the same two source populations. To prepare large numbers of individual mothers for these experiments, source populations were established from virgin hermaphrodites to constrain the presence of males and were conditioned to well-fed and ambient conditions for at least one generation before mothers were picked for the assays.
# [5] = test system: S. glaseri males; experiment: Retention assay, S. glaseri males; assay type: in vivo
# Procedure: as §1, with “0.6 μL of the control was placed on one side of the lawn, and 0.6 μL of the experimental cue was placed on the other side of the lawn, changing the location of the cue throughout trials between left/right and top/bottom to avoid bias.” left out
# (§2) Nematodes were isolated by gender at the L4 stage the day before being used in trials as developed adults. […] Trials were recorded for 20 minutes, and frames were collected for analysis at 1 frame per second. […]
# (§3) A video camera attached to the microscope produced a digital video stream, which was then analyzed. The ratio of the time the average worm spent in each region of interest was calculated for every trial. […] Thus worm pixels were counted instead of whole worms, allowing fractions of a worm in the region of interest to be taken into account. It also eliminated the need for a shape-based worm identification algorithm, and allowed each frame to be analyzed independently. […] Thus, the ratio of worm-pixels to all pixels inside the region of interest can be calculated to produce the worm-occupancy ratio. […]
# [6] = test system: C. elegans males; experiment: Retention assay, C. elegans males; assay type: in vivo
# Procedure: as §1, with “0.6 μL of the control was placed on one side of the lawn, and 0.6 μL of the experimental cue was placed on the other side of the lawn, changing the location of the cue throughout trials between left/right and top/bottom to avoid bias.” left out
# as §2, §3
# [7] = test system: P. redivivus males and females; experiment: Retention assay, P. redivivus; assay type: in vivo
# Procedure: as §1
# Nematodes were isolated by gender at the L4 stage the day before being used in trials as developed adults. Worms were evenly divided and placed at two points equidistant from the foci of the scoring region. Trials were recorded for 20 minutes, and frames were collected for analysis at 1 frame per second. Results were averaged from at least three different trials. For every nematode species in this study, a different total number of worms (using water in both scoring regions) was tested to determine the minimum number of worms necessary for consistent unbiased results over a 20 minute trial. The total number of worms used in the multiple species assays depended on that species' optimal parameters. […]
# as §3
# [8] = test system: C. elegans; settings: cited from earlier work
# [9] = test system: C. elegans hermaphrodites and males; experiment: Spot attraction assay; assay type: in vivo
# Procedure: The spot attraction assays were conducted according to a previously reported method (Pungaliya et al., PNAS 106:7708-13 (2009); Srinivasan et al., Nature 454:1115-18 (2008), which are hereby incorporated by reference in their entirety). For both C. elegans hermaphrodites and males, 50-60 worms were harvested daily at the fourth larval stage (L4) and stored segregatedly by sex at 20° C. overnight, to be used as young adults the following day. For the competition experiments, two conditions were used: 120 nM ascr#3 and 10 nM icas#3 (Condition 1), or 12 μM ascr#3 and 1 μM icas#3 (Condition 2) in water containing 10% ethanol. Aliquots were stored at −20° C. in 20 μL tubes. 10% ethanol in water was used as control.
# Attraction assays with hbas#3 were conducted as previously reported (Srinivasan et al., Nature 454:1115-18 (2008); Pungaliya et al., Proc. Natl. Acad. Sci. U.S.A. 106:7708-13 (2009), which are hereby incorporated by reference in their entirety). For the attraction assays, 50-60 hermaphrodite worms were harvested daily at the early fourth larval stage (L4) and stored at 20° C. overnight to be used as young adults the following day. Hbas#3 was dissolved in water containing 10% ethanol. Aliquots were stored at −20° C. in 20 μL tubes. 10% ethanol in water was used as control.
# [10] = test system: C. elegans; settings: Srinivasan et al. 2012; cited from earlier work
# [11] = test system: C. elegans; experiment: Aggregation assay; assay type: in vivo
# Procedure: Aggregation behavior of worms was measured using assays reported in de Bono & Bargmann, Cell 94:679-89 (1998), which is hereby incorporated by reference in its entirety. Aggregation assays were conducted on standard NGM plates. Plates containing indole ascarosides were made by adding the indole ascaroside stock solution to the NGM media before they were poured onto the plates. These plates were dried at room temperature for 2 to 3 days. Control plates were treated similarly, except that ethanol solutions instead of icas solutions were added to the plates, corresponding to the amount of ethanol introduced via the icas solutions. Final ethanol concentrations of the plates were below 0.1% for all conditions. After drying, both control plates and plates containing indole ascarosides were seeded with 150 μl of an overnight culture of E. coli OP50 using a micropipette, and were allowed to dry for 2 days at room temperature. For “low worm density” experiments, 20 worms were placed onto the lawn and left at 20° C. for 3 hours. For “high worm density” experiments, approximately 120 worms were placed onto the bacterial lawn and left at 20° C. for 3 hours. Aggregation behavior was quantified as the number of animals that were in touch with two or more animals at greater than 50% of their body length.
# [12] = Butcher et al., Org. Lett. 2009
SMILES,activity in the bioassay [1],dauer induction [2],preference for areas conditioned by the ascaroside [3],induction of the eurystomatous mouth form [4],concentration of conditioned regions preferred (activity threshold) [5],concentration of conditioned regions preferred (activity threshold) [6],concentration of conditioned regions preferred (activity threshold) ([7]; males),"dauer-inducing activity [8, 12]","shape of dauer response curve [8, 12]",promotion of dauer entry ([8]; shown previously),"attraction in the spot attraction assay ([9]; 1 pmol, N2 hermaphrodites and him-5 males)","attraction in the spot attraction assay ([9]; high concentrations, males and hermaphrodites)","attraction of hermaphrodites ([9]; low concentrations, N2 hermaphrodites)","attraction of males ([9]; low concentrations, males)",aggregation in C. elegans [10],concentrations at which active as hermaphrodite attractants and aggregation signals ([11]; in vivo),"aggregation of hermaphrodites ([11]; low worm density, solitary and social hermaphrodites)",response of P. redivivus females ([7]; females),response of P. redivivus males ([7]; males)
"C[C@H](CCCCC(=O)O)O[C@@H]1O[C@@H](C)[C@H](O)C[C@H]1O [ascr#1, reference compound]",active to males,does not induce dauer formation; also recorded: no dauer-inducing activity,preferred,weaker induction of the eurystomatous mouth form,–,–,–,–,–,–,–,–,–,–,–,–,–,–,–
CC1O[C@@H](O[C@H](C)CCCCCCC(=O)O)C(O)C[C@H]1O (some centres unmarked) [ascr#10],–,–,preferred,–,1 mM,1 µM,1 mM,–,–,–,–,–,–,–,–,–,–,–,–
"C[C@H](CCC(=O)O)O[C@@H]1O[C@@H](C)[C@H](OC(=O)c2c[nH]c3ccccc23)C[C@H]1O [icas#9, reference compound]",–,–,–,–,–,–,–,moderate dauer-inducing activity,bell-shaped response curve,individually promote dauer entry,attractive to both C. elegans sexes,attracted both males and hermaphrodites,strongly attracted,not attracted; also recorded: not males,aggregating stimulant,femtomolar to picomolar,increased aggregation of both solitary and social hermaphrodites,repeled,elicited no response
